34 compounds from PubChem BioAssay AID743351 (Broad Institute, 2014) can be followed below.

As a reminder, the IC90 is the concentration at which the effect reaches the 90% level.

Active and inactive are the calls of the source. No rule for the calls is given here.

The test concerns M. tuberculosis BioA-TetON overexpression strain, growth IC90. Description: PubChem AID 743351.
As to `CNC(=O)c1ccc(N2CCN(C(=O)c3ccc4c(c3)OCO4)CC2)cc1`, the IC90 was > 50 µM (inactive).

With `CN1c2ccc(-c3ccc(F)cc3)cc2[C@H]2[C@H](CCN2C(=O)Cc2cccnc2)[C@H]1CO`, the IC90 was > 50 µM (inactive).

Regarding `CC(=O)c1ccc(N2CCN(C(=O)c3ccc4c(c3)OCO4)CC2)cc1`, the IC90 is > 50 µM (inactive).

On to `CC(C)NC(=O)N1CC[C@@H]2[C@@H](CO)N(C)c3ccc(-c4ccc(F)cc4)cc3[C@@H]21`, for which the IC90 was > 50 µM (inactive).

Turning to `CC(=O)c1ccc(N2CCN(C(=O)c3ccccc3F)CC2)cc1`, the IC90 is > 50 µM (inactive).

Turning to `COc1ccc(NC(=O)N2CC[C@@H]3[C@@H](CO)N(C)c4ccc(-c5cccc(F)c5)cc4[C@@H]32)cc1`, the IC90 was > 50 µM (inactive).

`CN(C)C(=O)c1ccc(N2CCN(C(=O)c3ccc4c(c3)OCO4)CC2)cc1`: the IC90 is > 50 µM (inactive).

Regarding `CNS(=O)(=O)c1ccc(N2CCN(C(=O)c3ccc4c(c3)OCO4)CC2)cc1`, the IC90 was > 50 µM (inactive).

In the case of `CC(=O)c1ccc(NCCNC(=O)c2ccc3c(c2)OCO3)cc1`, the IC90 was > 50 µM (inactive).

For the compound `CC(=O)c1ccc(N2CCN(C(=O)c3ccc4c(c3)OCO4)[C@H](C)C2)cc1`, the IC90 is > 50 µM (inactive).

Take `COc1ccc(NC(=O)N2CC[C@@H]3[C@@H](CO)N(C)c4ccc(-c5ccc(F)cc5)cc4[C@@H]32)cc1`: the IC90 was > 50 µM (inactive).

Take `CN1c2ccc(-c3ccc(F)cc3)cc2[C@H]2[C@H](CCN2C(=O)Nc2cc(F)ccc2F)[C@H]1CO`: the IC90 is > 50 µM (inactive).

Turning to `CCC(=O)N1CC[C@@H]2[C@@H](CO)N(C)c3ccc(-c4ccc(F)cc4)cc3[C@@H]21`, the IC90 is > 50 µM (inactive).

For `CCCNC(=O)N1CC[C@@H]2[C@@H](CO)N(C)c3ccc(-c4ccc(F)cc4)cc3[C@@H]21`, the IC90 was > 50 µM (inactive).

Regarding `CC(C)NC(=O)N1CC[C@@H]2[C@@H](CO)N(C)c3ccc(-c4cccc(F)c4)cc3[C@@H]21`, the IC90 is > 50 µM (inactive).

As for `COCC(=O)N1CC[C@@H]2[C@@H](CO)N(C)c3ccc(-c4cccc(F)c4)cc3[C@@H]21`, the IC90 was > 50 µM (inactive).

In the case of `COc1ccccc1NC(=O)N1CC[C@@H]2[C@@H](CO)N(C)c3ccc(-c4cccc(F)c4)cc3[C@@H]21`, the IC90 was > 50 µM (inactive).

As for `CN1c2ccc(-c3cccc(F)c3)cc2[C@H]2[C@H](CCN2C(=O)Cc2cccnc2)[C@H]1CO`, the IC90 is > 50 µM (inactive).

For the compound `CN1c2ccc(-c3ccc(F)cc3)cc2[C@H]2[C@H](CCN2C(=O)Nc2ccc(F)cc2)[C@H]1CO`, the IC90 was > 50 µM (inactive).

Take `CN1c2ccc(-c3cccc(F)c3)cc2[C@@H]2[C@@H](CCN2C(=O)c2ccc3c(c2)OCO3)[C@H]1CO`: the IC90 was > 50 µM (inactive).

Turning to `COc1ccccc1NC(=O)N1CC[C@@H]2[C@@H](CO)N(C)c3ccc(-c4ccc(F)cc4)cc3[C@@H]21`, the IC90 was > 50 µM (inactive).

For the compound `CCCCCCCC(=O)N1CC[C@@H]2[C@@H](CO)N(C)c3ccc(-c4cccc(F)c4)cc3[C@@H]21`, the IC90 was > 50 µM (inactive).

`COc1cccc(NC(=O)N2CC[C@@H]3[C@@H](CO)N(C)c4ccc(-c5cccc(F)c5)cc4[C@@H]32)c1`: the IC90 is > 50 µM (inactive).

Turning to `CN1c2ccc(-c3cccc(F)c3)cc2[C@@H]2[C@@H](CCN2C(=O)c2ccc3c(c2)OCO3)[C@@H]1CO`, the IC90 is > 50 µM (inactive).

On to `CN1c2ccc(-c3cccc(F)c3)cc2[C@H]2[C@H](CCN2C(=O)CCCCCCC(=O)O)[C@H]1CO`, for which the IC90 was > 50 µM (inactive).

Consider `CN1c2ccc(-c3cccc(F)c3)cc2[C@H]2[C@H](CCN2C(=O)Cc2ccccc2)[C@H]1CO`, for which the IC90 was > 50 µM (inactive).

Take `CC(=O)c1ccc(N2CCN(C(=O)c3ccccc3Cl)CC2)cc1`: the IC90 was > 50 µM (inactive).

Take `CN1c2ccc(-c3ccc(F)cc3)cc2[C@H]2[C@H](CCN2C(=O)Cc2ccccn2)[C@H]1CO`: the IC90 was > 50 µM (inactive).

Regarding `CN1c2ccc(-c3cccc(F)c3)cc2[C@H]2[C@H](CCN2C(=O)Nc2ccccc2F)[C@H]1CO`, the IC90 is > 50 µM (inactive).

Take `CN1c2ccc(-c3cccc(F)c3)cc2[C@H]2[C@H](CCN2C(=O)c2ccc3c(c2)OCO3)[C@@H]1CO`: the IC90 was > 50 µM (inactive).

As for `CN1c2ccc(-c3cccc(F)c3)cc2[C@H]2[C@H](CCN2C(=O)CCCCCCN)[C@H]1CO`, the IC90 is > 50 µM (inactive).

In the case of `COc1ccccc1C(=O)N1CCN(c2ccc(C(C)=O)cc2)CC1`, the IC90 was > 50 µM (inactive).

As for `CC(=O)c1ccc(N2CC3(CN(C(=O)c4ccc5c(c4)OCO5)C3)C2)cc1`, the IC90 is > 50 µM (inactive).

On to `COC(=O)CCCCCCC(=O)N1CC[C@@H]2[C@@H](CO)N(C)c3ccc(-c4cccc(F)c4)cc3[C@@H]21`, for which the IC90 is > 50 µM (inactive).
